# From US11491127B2, “Therapeutic use of compounds” (UCL BUSINESS LTD, priority 2010, dated 2022)
# Where two headings read alike, the source gives them in different places.
# What was measured:
# [1] = tested on: phosphoinositide (PIP and PIP2) turnover in Dictyostelium AX2 cells; test: Dictyostelium phospholipid labelling (PIP and PIP2 turnover); assay type: cell-based, Dictyostelium discoideum; conditions: for activity at 500 µM: Dictyostelium, 0.1 h
# Procedure: Phospholipid labelling was quantified using a Typhoon phosphor-imager. Even loading was determined using total lipid stain with copper sulphate.
# [2] = tested on: release of 3H arachidonic acid / palmitic acid radiolabel from Dictyostelium cells; test: Fatty acid release (3H radiolabel release from labelled cells); assay type: cell-based, Dictyostelium discoideum; conditions: for effect of PLA2 inhibitors on radiolabel release from 3H-AA cells: BEL 80 μM, MAFP 50 μM, BPB 20 μM, cocktail of all three; for activity at 500 µM: Dictyostelium, 0.5 h, 3H-AA labelled cells, 0.5 mM treatment, read-out: AA release [% of control]
# [3] = tested on: uptake of 3H arachidonic acid / palmitic acid into Dictyostelium cells; test: Fatty acid uptake (3H radiolabel incorporation into cells); assay type: cell-based, Dictyostelium discoideum
# [4] = tested on: PTZ-induced epileptiform activity in entorhinal cortex-hippocampal slices; test: In vitro PTZ acute seizure model, entorhinal cortex-hippocampus slices; assay type: cell-based, rat; conditions: PTZ 2 mM, [K+] 6 mM; compounds equimolar 1 mM; 30 to 40 minutes after application
# Procedure: The rats (p21) were decapitated after killing by intraperitoneal injection with an overdose of pentobarbitone (500 mg/kg). The brain was removed and placed in ice-cold sucrose solution in mM: NaCl 87, KCl 2.5, MgCl2 7, CaCl2 0.5, NaH2PO4 1.25, sucrose 75, glucose 25, equilibrated with 95% 02/5% CO2 (pH 7.4). Horizontal combined entorhinal cortex-hippocampus slices (350 μm) were prepared with a Leica vibratome (Leica V T1200S) and were then stored in an interface chamber that contained artificial cerebrospinal fluid solution (aCSF) containing in mM: NaCl 119, KCl 2.5, MgSO4 4, CaCl2 4, NaHCO326.2, NaH2PO4 1, glucose 11, and gassed with 95% O2/5% CO2. They were stored for over one hour before being transferred to a submersion recording chamber continually perfused with carbogenated aCSF for recording. Field potential recordings were made by placing glass microelectrodes (˜1-2 MΩ) filled with aCSF solution in stratum radiatum of CA1. Bipolar stimulating electrodes were positioned in the Schaffer collateral/commissural fibre pathway in stratum radiatum to confirm slice viability. In the PTZ acute seizure model, PTZ (2 mM) was added to the perfusate and [K+] was increased to 6 mM in order to induce epileptiform activity (Armand et al., 1998). In the low Mg^2+ acute seizure model, Mg^2+ free aCSF was applied to generate rhythmic short recurrent discharges. Novel anticonvulsants were applied once the frequency and amplitude of the epileptiform discharges were stable over a period of 10 min. Anticonvulsant effects were evaluated by measuring the variation of frequency of the discharges every minute. The data acquired from the 30 to 40 minutes after application novel anticonvulsants were compared by ANOVA followed by post-hoc testing using Tukey test, using SPSS statistical analysis.
# [5] = Table 2; cited from earlier work
# [6] = tested on: inositol levels in Dictyostelium cells; test: Inositol levels in treated Dictyostelium cells; assay type: cell-based, Dictyostelium discoideum; conditions: time period causing phosphoinositide attenuation (9 min)
# Procedure: Following a 6 min incubation, labelling solution was removed and cells were lysed in acidified methanol and phospholipids were separated as previously detailed (Williams et al., 1999). Phospholipid labelling was quantified using a Typhoon phosphor-imager. Even loading was determined using total lipid stain with copper sulphate. Inositol levels were measured from five hour developed cells (similar to phospholipid labelling), following lyophilisation, as previously described (Maslanski & Busa, 1990).
# [7] = read-out: PIP Level (% control), Table 1, 0.5 mM compound, 3 min pre-treatment + 6 min labelling, wild type Dictyostelium
# [8] = Table 1, 0.5 mM compound, 3 min pre-treatment + 6 min labelling, wild type Dictyostelium
# [9] = read-out: PIP level % control, Table 2, VPA and straight chain acids in Dictyostelium
# [10] = Table 1, wild type Dictyostelium
molecule,measurement,setting,value
CCCCCCCCC(C)CC(=O)O (stereo not drawn) [3-methylundecanoic acid],activity at 500 µM,[1]; [7],50%
"4-hexenoic acid, (cis + trans)",PIP Level (% control),[1]; [8],58 % control
"O=C(CBr)c1ccc(Br)cc1 [BPB, reference compound]",effect of PLA2 inhibitors on radiolabel release from 3H-AA cells,[2],reduced radiolabel release
"O=C(O)C(c1ccccc1)c1ccccc1 [Diphenylacetic acid, 2,2-diphenylacetic acid]",activity at 500 µM,[1]; [7],39%
"CC1(C)C(C(N)=O)C1(C)C [TMCD, tetramethylcyclopropane-carboxamide]",PIP Level (% control),[1]; [8],72.5 % control
CCCCCC(C)CCC(=O)O (stereo not drawn) [4-methylnonanoic acid],activity at 500 µM,"[2]; Table 3, 30 min",63%
same,activity at 500 µM,[1]; [7],45%
"CC(C)C(C(=O)O)C(C)C [DIA, diisopropylacetic acid]",activity at 500 µM,[1]; [7],18.6%
CCC(C)CCC(=O)O (stereo not drawn) [4-methylhexanoic acid],activity at 500 µM,[1]; [7],68%
"CCCC(C(=O)O)C(C)C (stereo not drawn) [PIA, propylisopropylacetic acid]",inhibitory effect on radiolabel release,"[2]; 3H-AA, FIG. 9",strong
same,effect on 3H-AA uptake compared with VPA,"[3]; 3H-AA, FIG. 9",elevated uptake
same,activity at 500 µM,[1]; [7],15.4%
CCCCCCC(CCCC)C(=O)O (stereo not drawn) [2-butyloctanoic acid],frequency of epileptiform discharges (seizure discharge frequency),[4],5.2±5.0%
CCCCCCCCC(CO)CCCCCC (stereo not drawn) [2-hexyl-1-decanol],activity at 500 µM,[1]; [7],191%
CCCCC(CC)CCC(=O)O (stereo not drawn) [4-ethyloctanoic acid],activity at 500 µM,"[2]; Table 3, 30 min",87%
same,activity at 500 µM,[1]; [7],13.2%
CCCCCCC(CO)CCCC (stereo not drawn) [2-butyl-1-octanol],activity at 500 µM,[1]; [7],93%
"CC(CC(=O)O)CC(C)(C)C (stereo not drawn) [3,5,5-trimethylhexanoic acid]",activity at 500 µM,[1]; [7],32%
CC(C)CCCC(=O)O [5-methylhexanoic acid],activity at 500 µM,[1]; [7],7.2%
"CC1(C)C(C(=O)O)C1(C)C [TMCA, tetramethylcyclopropane carboxylic acid]",PIP Level (% control),[1]; [8],33.9 % control
latrunculin,effect on VPA-induced AA uptake,[3]; latrunculin 10 μM,failed to attenuate
same,fatty acid uptake in control cells,[3]; latrunculin 10 μM,decreased uptake
Tert-butyl amide,PIP Level (% control),[1]; [8],47.6 % control
CCCCC(C)C(=O)O (stereo not drawn) [2-methylhexanoic acid],activity at 500 µM,[1]; [7],68.1%
"CCCC(C(N)=O)C(C)C (stereo not drawn) [PID, propylisopropylacetamide]",activity at 500 µM,[1]; [7],59%
"C=CCC(C)(C)C(=O)O [2,2-dimethyl-4-pentenoic acid]",activity at 500 µM,[1]; [7],60%
"CCC(C)C(CC)C(N)=O (stereo not drawn) [valnocatmide, 2-ethyl-3-methyl valeramide, reference compound]",PIP Level (% control),[1]; [8],64 % control
CCCCCCCC=O [octanal],activity at 500 µM,[1]; [7],260%
"CCCCC(C)(C)C(=O)O [2,2-dimethylhexanoic]",PIP Level (% control),[1]; [8],29.7 % control
CCCCCCCCC(CCC)C(=O)O (stereo not drawn) [2-propyl-decanoic acid],activity at 500 µM,"[2]; Table 3, 30 min",56%
CCCCCC(C)C(=O)O (stereo not drawn) [2-methylheptanoic],PIP Level (% control),[1]; [8],16.1 % control
CCCCCCCCCC(=O)O [decanoic acid],activity at 500 µM,"[2]; Table 3, 30 min",62%
same,activity at 500 µM,[1]; [7],12.9%
same,activity at 500 µM,[1]; [9],12.9%
same,frequency of epileptiform discharges (seizure discharge frequency),[4],0.23±0.23%
CCCCCCCC(=O)O [octanoic acid],pKa,[5],4.89
same,activity at 500 µM,"[2]; Table 3, 30 min",72%
same,activity at 500 µM,[1]; [7],16.7%
same,activity at 500 µM,[1]; [9],16.7%
C=CC(C)CC(=O)O (stereo not drawn) [3-methyl-4-pentenoic acid],activity at 500 µM,[1]; [7],84%
CCCCCCCCC=O [nonanal],activity at 500 µM,[1]; [7],99%
"CC(C)(C)CC(=O)O [TBA, tert-butylacetic acid]",activity at 500 µM,[1]; [7],21.4%
CCCCCCC(CCC)C(=O)O (stereo not drawn) [2-propyloctanoic acid],activity at 500 µM,"[2]; Table 3, 30 min",45%
same,radiolabel release activity relative to control,"[2]; Table 3, 30 min, 0.5 mM",≤ 45 % of control
same,frequency of epileptiform discharges (seizure discharge frequency),[4],5.3±3.3%
"CNC(=O)C1C(C)(C)C1(C)C [MTMCD, N-methyl-tetramethyl-cyclopropane carboxamide]",PIP Level (% control),[1]; [8],50.8 % control
CCCCC(CC)C(=O)O (stereo not drawn) [2-ethylhexanoic acid],activity at 500 µM,[1]; [7],22.2%
CCCCC(=O)OC [methylvalerate],activity at 500 µM,[1]; [7],46%
CCCCCCCCCCCCCCCCC(=O)O [heptadecanoic acid],pKa,[5],4.78
same,activity at 500 µM,[1]; [7],92.3%
same,activity at 500 µM,[1]; [9],92.3%
CC/C=C/C(=O)O [trans-pent-2-enoic acid],activity at 500 µM,[1]; [7],50.4%
CCCCCC(=O)O [hexanoic acid],activity at 500 µM,[1]; [7],49.2%
same,activity at 500 µM,[1]; [9],49.2%
CCCCCCCCC(=O)O [nonanoic acid],pKa,[5],4.95
same,activity at 500 µM,"[2]; Table 3, 30 min",66%
same,reduction in inositol levels,[6],do not acutely deplete inositol
same,activity at 500 µM,[1]; [7],8%
same,activity at 500 µM,[1]; [9],8%
same,reduction of PIP2 signalling,[1]; [10],93%
same,reduction of PIP signalling,[1]; [10],92%
same,frequency of epileptiform discharges (seizure discharge frequency),[4],20.9±7.5%
CCC(C)CC(=O)O (stereo not drawn) [3-methylpentanoic acid],activity at 500 µM,[1]; [7],64%
"O=C1O/C(=C/Br)CCC1c1cccc2ccccc12 (stereo not drawn) [BEL, reference compound]",effect of PLA2 inhibitors on radiolabel release from 3H-AA cells,[2],reduced radiolabel release
CCCCCCCCC(CC)C(=O)O (stereo not drawn) [2-ethyl-decanoic],activity at 500 µM,"[2]; Table 3, 30 min",73%
CCCC(C)C(=O)O (stereo not drawn) [2-methylpentanoic acid],activity at 500 µM,[1]; [7],59%
"NCCCC(=O)O [GABA, 4-aminobutanoic acid, reference compound]",activity at 500 µM,[1]; [7],60.8%
CCCCCCCCCCCC(=O)O [dodecanoic acid],pKa,[5],4.85
same,activity at 500 µM,"[2]; Table 3, 30 min",89%
same,activity at 500 µM,[1]; [7],42%
same,activity at 500 µM,[1]; [9],42%
CCCCC=O [pentanal],activity at 500 µM,[1]; [7],52%
CCCOC(=O)C(C)CCC (stereo not drawn) [n-propyl 2-methylvalerate],activity at 500 µM,[1]; [7],121%
CCCCC(=O)O [pentanoic acid],pKa,[5],4.84
same,activity at 500 µM,[1]; [7],66.9%
same,activity at 500 µM,[1]; [9],66.9%
same,frequency of epileptiform discharges (seizure discharge frequency),[4],not seen
CCCCCCC(=O)O [heptanoic acid],pKa,[5],4.89
same,activity at 500 µM,[1]; [7],31.2%
same,activity at 500 µM,[1]; [9],31.2%
CCCC(CO)CCC [2-propyl-1-pentanol],activity at 500 µM,[1]; [7],101%
